Series [1] in a line: Transmetalation kinetics: evolution of paramagnetic relaxation rate R1P(t)/R1P(0) in presence of ZnCl2. It counts as physicochemical. The conditions noted are these: for pattern of evolution of the paramagnetic relaxation rate R1P(t)/R1P(0) (in words): phosphate-buffered solution pH 7.4, 2.5 mmol/L Gd-complex and 2.5 mmol/L ZnCl2, 72 hours. An excerpt: […]. The relative value of R1^P at time t, R1^P(t)/R1^P(0), is therefore a good estimate of the extent of transmetalation. The evolution of R1^P(t)/R1^P(0) over time gives relevant information about the kinetics of the reaction, whereas the plateau value theoretically reached at t=∞ will reflect the thermodynamic aspect.
Accordingly, in order to investigate the transmetalation kinetics of the gadolinium complexes according to the present invention, the evolution of water proton relaxation rate (R1^P) of a phosphate-buffered solution (pH 7.4) containing 2.5 mmol/L of Gd-complex and 2.5 mmol/L of ZnCl2 with time was measured. To measure the change in the relaxation rate, 10 μL of a ZnCl2 solution (250 mmol/L) was added to 1 mL of a buffered solution of the Gd-complex and the mixture was vigorously stirred. The same experiment was performed with Dotarem®, Omniscan®, Multihance®, Primovist® and ethyl tranexamate (6) with zinc acetate for comparison. The measurement was made on a 3T whole body system (Magnetom Tim Trip; Simens, Germany) at room temperature.

For series [2] the following is noted: 20 MHz, 298 K; cited from earlier work.
The conditions of series [3]: reference values from ref. 8 or 9; cited from earlier work.
In series [4] the test system is ICR mice. The series is described as follows: In vivo MRI test. Conditions: 0.1 mmol of Gd/kg. On the procedure:
(§1) To study the contrasting effect of the MRI contrast agent according to the present invention, six-week-old male ICR mice (weight=29-31 g) were used for the in vivo study. The mice were anesthetized by 1.5% isoflurane in oxygen and treated with gadolinium complex (5c) of the present invention at amount of 0.1 mmol of Gd/kg. After the treatment, the mouse was revived from anesthesia and placed in the cage with free access to food and water. The animals were maintained at approximately 37° C. using a warm water blanket.
MR images were taken with 1.5 T (GE Healthcare, Milwaukee, Wis., USA) equipped with a homemade small animal RF coil. The coil was of the receiver type with its inner diameter being 50 mm. The imaging parameters for 3D fast SPGR (spoiled GRASS images) are as follows: repetition time (TR)=8.8 ms; echo time (TE)=3.9 ms; 10 mm field of view (FOV); 256×192 matrix size; 1.0 mm slice thickness; number of acquisition (NEX)=4. The imaging parameters for spin-echo are as follows: TR=500 ms; TE=13 ms; 6 mm FOV; 192×128 matrix size; 1.5 mm slice thickness; NEX=4. Each image was taken with an interval of 3 min and 16 s. […] For analysis of the obtained MR images, signal intensities in specific regions of interest (ROI) were measured using Advantage Window software (GE Medical, USA). The CNR was calculated using Equation 3, where SNR is the signal-to-noise ratio. […]

Series [5] is described as follows: Relaxation times (T1, T2) and relaxivities (R1, R2) at 1.5 T. It counts as physicochemical. On the procedure: T1 measurements were carried out using an inversion recovery method with a variable inversion time (TI) at 1.5 T. The MR images were acquired at 35 different TI values ranging from 50 to 1750 ms. T1 relaxation times were obtained from the nonlinear least-squares fit of the signal intensity measured at each T1 value. For T2 measurements the CPMG (Carr-Purcell-Meiboon-Gill) pulse sequence was adapted for multiple spin-echo measurements. Thirty-four images were acquired with 34 different echo time (TE) values. T2 relaxation times were obtained from the nonlinear least-squares fit of the mean pixel values for the multiple spin-echo measurements at each echo time. Relaxivities were then calculated as an inverse (R=1/s·mM) of relaxation time per mM. The determined relaxation times and relaxivities are finally transformed to a phantom map. The phantom images were obtained with the same concentration of Dotarem® and gadolinium complexes or comparative purposes. […] Table 2 summarizes the relaxation times and relaxivities for gadolinium complexes of the present invention along with other Gd-complexes.

Series [6] can be described thus: ICP measurement of Gd(III) ion concentration in organs with time. It counts as in vivo, mice. On the set-up: unit not given here. How it is done: as §1
The excretion via the bile duct was further confirmed by measuring the concentration of Gd(III) ions with time through inductively coupled plasma (ICP) measurement. At 6 h after the injection, the Gd(III) ions were detected in the intestine, confirming that they are excreted via the liver and the bile duct.

Molecules are shown by their SMILES. “Also recorded” adds a separate entry of the source. Read-outs that look alike come from different tables or passages of the source.

For `CNC(=O)CN(CCN(CCN(CC(=O)[O-])CC(=O)NC)CC(=O)[O-])CC(=O)[O-].[Gd+3]` [Omniscan, [Gd(DTPA-bismethylamide)(H2O)]], the “paramagnetic relaxation rate retained, R1P(t)/R1P(0) (kinetic stability)” value in series [1] (72 hours, phosphate-buffered solution pH 7.4, 2.5 mmol/L Gd-complex and 2.5 mmol/L ZnCl2, room temperature, 3T) stood at 30%. The “pattern of evolution of the paramagnetic relaxation rate R1P(t)/R1P(0) (in words)” value in series [1] is “drastic decrease in the rate”. Further, the magnetic relaxation rate result in series [2] is recorded as “about 4.4 mM^−1s^−1”. Further, in series [3], the R1 relaxivity was 4.9 ± 0.14 mM⁻¹ s⁻¹, the R2 relaxivity was 3.4 ± 0.25 mM⁻¹ s⁻¹, the T1 relaxation time was 209.8 ± 5.82 ms and the T2 relaxation time is 290.9 ± 21.02 ms.
Regarding `CNC[C@H](O)[C@@H](O)[C@H](O)[C@H](O)CO.CNC[C@H](O)[C@@H](O)[C@H](O)[C@H](O)CO.O=C([O-])CN(CCN(CC(=O)[O-])CC(=O)O)CCN(CC(=O)[O-])CC(=O)O.[Gd+3]` [Magnevist, (N-Me-glucamine)2[Gd(DTPA)(H2O)]], the magnetic relaxation rate entry in series [2] is recorded as “about 4.7 mM^−1s^−1”.
Regarding `C=CCOC(=O)C1CCC(CNC(=O)CN2CCN(CC(=O)[O-])CCN(CC(=O)[O-])CCN(CC(=O)[O-])CC2)CC1.O.[Gd+3]` (stereo not shown) [Compound 5c], the “excretion pattern (MR images)” value in series [4] is reported as “excreted slowly to the intestine via the bile duct through hepatobiliary uptake”. The “MR contrasting effect in the liver” value in series [4] (1.5 T) is listed as “enhances contrast of the liver”. Moreover, the “R1 value compared with commercially available contrast agents (in words)” value in series [5] (1.5 T) is “significantly higher R1 values than any of the clinically used contrast agents; also recorded: very high R1 values”. Also, in series [5] (1.5 T, mean value(±SD)), the R1 relaxivity is 9.5 ± 0.12 mM⁻¹ s⁻¹. The same compound showed an R2 relaxivity in series [5] (1.5 T, mean value(±SD)) of 10.9 ± 0.03 mM⁻¹ s⁻¹. The compound also had a T1 relaxation time in series [5] (1.5 T, mean value(±SD)) of 105.28 ± 1.33 ms. In addition, in series [5] (1.5 T, mean value(±SD)), the T2 relaxation time stood at 91.74 ± 0.25 ms. Besides, the “R1 value relative to that of Dotarem” value in series [5] (ratio of R1 values) is on record as 2.6 times. The “concentration of Gd(III) ions (ICP)” value is 13.95 in series [6] (Bile duct, 6 h after injection); 5.16 in series [6] (Blood, 1 h after injection); 0.12 in series [6] (Blood, 6 h after injection); 2.485 in series [6] (Intestine, 6 h after injection); 65.17 in series [6] (Kidney, 1 h after injection); 68.22 in series [6] (Kidney, 6 h after injection). For the same compound, the “concentration of Gd(III) ions (ICP)” value is reported as 10.89 in series [6] (Kidney, 24 h after injection); 6.91 in series [6] (Kidney, 48 h after injection); 62.09 in series [6] (Liver, 1 h after injection); 50.90 in series [6] (Liver, 6 h after injection); 33.73 in series [6] (Liver, 24 h after injection); 35.90 in series [6] (Liver, 48 h after injection). For the same compound, the “concentration of Gd(III) ions (ICP)” value in series [6] (Liver, 72 h after injection) worked out at 6.22.
In the case of `CNC[C@H](O)[C@@H](O)[C@H](O)[C@H](O)CO.CNC[C@H](O)[C@@H](O)[C@H](O)[C@H](O)CO.O=C([O-])CN(CCN(CC(=O)[O-])CC(=O)O)CCN(CC(=O)O)C(COCc1ccccc1)C(=O)[O-].[Gd+3]` (stereo not shown) [Multihance], the “pattern of evolution of the paramagnetic relaxation rate R1P(t)/R1P(0) (in words)” value in series [1] is “drastic decrease in the rate”. Besides, in series [3], the R1 relaxivity was 4.0 ± 0.2 mM⁻¹ s⁻¹, the R2 relaxivity is 4.3 ± 0.5 mM⁻¹ s⁻¹, the T1 relaxation time was 250.62 ± 12.5 ms and the T2 relaxation time is 235 ± 27.4 ms.

The record behind these values is US8901294B2, “MRI contrast agent having gadolinium complex” (priority 2010, dated 2014).
